Measurements: patent publication US20250145606A1 (Arcus Biosciences, Inc., priority 2023, published 2025)
Read-outs that look alike come from different tables or passages of the source.

Columns and labels:
[1] = target: PDGFRα (Homo sapiens (Human), UniProt P16234); test: Inhibition of PDGFRα kinase activity (HTRF KinEASE-TK); conditions: biochemical
How it was run: (§1)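 Human kinases were preincubated 1 h at rt with a 22-point 1:2 compound titration, then run 120 min at rt with biotinylated TK peptide and ATP (2× mix: c-Kit 16 μM, PDGFRα 1 μM, PDGFRβ 40 μM, CSF1R 20 μM). Phosphopeptide was read by HTRF TR-FRET (665/620 nm), and IC50s came from 4-parameter fits.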

[2] = target: PDGFRβ (Homo sapiens (Human), UniProt P09619); test: Inhibition of PDGFRβ kinase activity (HTRF KinEASE-TK); conditions: biochemical
How it was run: as §1

[3] = target: c-Kit (Homo sapiens (Human), UniProt P10721); test: Inhibition of c-Kit kinase activity (HTRF KinEASE-TK); assay type: biochemical; conditions: biochemical
How it was run: as §1

[4] = system: Phospho-KIT (Y703) in M07e cells; test: Phospho-KIT (Y703) cellular assay in M07e cells; assay type: cell-based; conditions: M-07e
How it was run: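 Serum-starved M07e cells preincubated 50 min at 37° C with 11-point half-log compound titration, then stimulated 10 min with SCF at 90.9 ng/mL final. Fixed, permeabilized cells stained for phospho-KIT Y703 and read by flow cytometry (live-gated geometric mean); IC50 by 4-parameter fit normalized to DMSO and positive control.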

[5] = target: FLT3 (Homo sapiens (Human), UniProt P36888); test: Inhibition of FLT3 kinase activity (HTRF KinEASE-TK); assay type: biochemical; conditions: biochemical
How it was run: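 FLT3 tyrosine kinase activity was measured with the HTRF KinEASE-TK kit by following phosphorylation of a biotinylated TK peptide. After the 45 min reaction, 10 μL of detection mix was added: 0.2 μM (2×) Streptavidin-XL665 and 2 μM (2×) TK-Antibody-Cryptate in detection buffer. After 60 min, TR-FRET was read on an Envision as the 665 nm/620 nm emission ratio with 320 nm excitation.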

[6] = target: CSF1R (Homo sapiens (Human), UniProt P07333); test: Inhibition of CSF1R kinase activity (HTRF KinEASE-TK); conditions: biochemical
How it was run: as §1

[7] = Phospho-KIT (Y703), M07e cells, read-out: M07e Cell IC50

Chain of FLT3 (P36888 27-993): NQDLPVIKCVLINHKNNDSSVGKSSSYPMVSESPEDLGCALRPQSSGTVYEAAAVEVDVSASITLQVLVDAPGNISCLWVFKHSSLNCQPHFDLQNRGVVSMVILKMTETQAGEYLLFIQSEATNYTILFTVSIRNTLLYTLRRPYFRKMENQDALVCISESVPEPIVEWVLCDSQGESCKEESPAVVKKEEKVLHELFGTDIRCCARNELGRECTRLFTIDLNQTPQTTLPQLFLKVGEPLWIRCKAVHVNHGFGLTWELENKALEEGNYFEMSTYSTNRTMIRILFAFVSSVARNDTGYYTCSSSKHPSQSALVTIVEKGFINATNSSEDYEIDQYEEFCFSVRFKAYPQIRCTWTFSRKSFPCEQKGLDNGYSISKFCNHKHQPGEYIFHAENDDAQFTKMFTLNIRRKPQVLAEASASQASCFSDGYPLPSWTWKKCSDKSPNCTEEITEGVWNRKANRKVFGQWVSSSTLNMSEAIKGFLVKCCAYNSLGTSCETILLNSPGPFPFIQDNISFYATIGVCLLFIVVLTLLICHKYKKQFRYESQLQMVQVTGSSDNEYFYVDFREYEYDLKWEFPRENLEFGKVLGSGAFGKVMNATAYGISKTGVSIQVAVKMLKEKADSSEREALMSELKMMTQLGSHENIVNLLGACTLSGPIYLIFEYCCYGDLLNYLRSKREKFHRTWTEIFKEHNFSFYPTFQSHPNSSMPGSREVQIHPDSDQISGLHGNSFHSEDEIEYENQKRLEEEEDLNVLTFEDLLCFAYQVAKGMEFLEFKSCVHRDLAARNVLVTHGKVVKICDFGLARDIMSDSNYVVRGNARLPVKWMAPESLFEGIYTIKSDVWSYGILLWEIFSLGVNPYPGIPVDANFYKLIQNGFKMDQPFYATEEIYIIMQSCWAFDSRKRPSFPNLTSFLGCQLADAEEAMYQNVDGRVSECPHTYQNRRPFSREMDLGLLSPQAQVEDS
Chain of CSF1R (P07333 20-972): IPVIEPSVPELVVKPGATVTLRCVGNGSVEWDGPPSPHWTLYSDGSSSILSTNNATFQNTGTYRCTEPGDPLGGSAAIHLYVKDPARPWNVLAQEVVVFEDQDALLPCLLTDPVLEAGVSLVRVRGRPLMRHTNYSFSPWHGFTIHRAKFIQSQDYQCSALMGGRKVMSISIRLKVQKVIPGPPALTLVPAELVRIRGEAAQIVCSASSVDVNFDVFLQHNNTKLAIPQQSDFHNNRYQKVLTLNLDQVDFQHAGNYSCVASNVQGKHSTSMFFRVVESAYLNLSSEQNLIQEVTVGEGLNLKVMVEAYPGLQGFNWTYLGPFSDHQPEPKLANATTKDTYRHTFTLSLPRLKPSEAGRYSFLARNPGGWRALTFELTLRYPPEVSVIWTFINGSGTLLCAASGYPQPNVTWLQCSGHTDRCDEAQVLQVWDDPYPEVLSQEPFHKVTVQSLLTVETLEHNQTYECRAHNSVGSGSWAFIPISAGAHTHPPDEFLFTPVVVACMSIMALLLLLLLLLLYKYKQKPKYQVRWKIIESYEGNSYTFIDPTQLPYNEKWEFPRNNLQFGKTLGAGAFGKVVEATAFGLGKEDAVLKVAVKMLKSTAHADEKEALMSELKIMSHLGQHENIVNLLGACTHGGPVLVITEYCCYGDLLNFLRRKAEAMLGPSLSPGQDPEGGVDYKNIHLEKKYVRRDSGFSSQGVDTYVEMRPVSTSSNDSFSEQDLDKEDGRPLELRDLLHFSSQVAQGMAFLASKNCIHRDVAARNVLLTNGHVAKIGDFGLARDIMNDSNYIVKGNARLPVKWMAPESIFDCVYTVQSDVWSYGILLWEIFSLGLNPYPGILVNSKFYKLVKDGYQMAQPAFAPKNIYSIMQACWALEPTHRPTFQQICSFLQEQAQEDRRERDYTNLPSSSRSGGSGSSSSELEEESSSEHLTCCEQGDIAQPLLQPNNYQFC
Chain of PDGFRα (P16234 24-1089): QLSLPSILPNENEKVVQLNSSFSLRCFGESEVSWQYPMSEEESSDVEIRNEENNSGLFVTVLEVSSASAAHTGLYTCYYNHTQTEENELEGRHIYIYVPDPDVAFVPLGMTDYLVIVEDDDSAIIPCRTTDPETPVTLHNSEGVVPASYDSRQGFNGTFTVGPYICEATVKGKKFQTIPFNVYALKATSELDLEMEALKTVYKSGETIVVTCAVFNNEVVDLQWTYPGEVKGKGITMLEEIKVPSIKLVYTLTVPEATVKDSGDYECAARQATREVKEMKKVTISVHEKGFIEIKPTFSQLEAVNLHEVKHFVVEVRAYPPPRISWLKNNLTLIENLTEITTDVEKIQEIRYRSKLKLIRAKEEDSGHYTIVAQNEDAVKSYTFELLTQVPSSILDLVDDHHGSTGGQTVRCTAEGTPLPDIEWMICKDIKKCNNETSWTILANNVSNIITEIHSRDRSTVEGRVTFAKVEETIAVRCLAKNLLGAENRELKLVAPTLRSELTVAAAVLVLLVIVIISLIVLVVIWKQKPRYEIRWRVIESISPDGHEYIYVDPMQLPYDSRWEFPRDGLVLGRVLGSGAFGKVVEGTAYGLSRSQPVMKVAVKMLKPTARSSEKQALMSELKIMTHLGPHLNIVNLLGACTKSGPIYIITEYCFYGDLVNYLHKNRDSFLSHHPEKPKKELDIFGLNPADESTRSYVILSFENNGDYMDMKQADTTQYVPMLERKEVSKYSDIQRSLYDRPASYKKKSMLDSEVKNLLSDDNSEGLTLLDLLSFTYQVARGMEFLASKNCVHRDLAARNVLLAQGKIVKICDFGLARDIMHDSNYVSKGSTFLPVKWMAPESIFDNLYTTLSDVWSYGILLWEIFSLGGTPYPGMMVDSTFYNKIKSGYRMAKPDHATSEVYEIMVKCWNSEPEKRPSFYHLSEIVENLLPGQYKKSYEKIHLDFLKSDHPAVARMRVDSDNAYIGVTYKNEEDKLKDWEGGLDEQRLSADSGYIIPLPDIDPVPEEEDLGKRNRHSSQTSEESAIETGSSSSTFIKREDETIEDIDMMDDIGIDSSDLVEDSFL
Chain of PDGFRβ (P09619 33-1106): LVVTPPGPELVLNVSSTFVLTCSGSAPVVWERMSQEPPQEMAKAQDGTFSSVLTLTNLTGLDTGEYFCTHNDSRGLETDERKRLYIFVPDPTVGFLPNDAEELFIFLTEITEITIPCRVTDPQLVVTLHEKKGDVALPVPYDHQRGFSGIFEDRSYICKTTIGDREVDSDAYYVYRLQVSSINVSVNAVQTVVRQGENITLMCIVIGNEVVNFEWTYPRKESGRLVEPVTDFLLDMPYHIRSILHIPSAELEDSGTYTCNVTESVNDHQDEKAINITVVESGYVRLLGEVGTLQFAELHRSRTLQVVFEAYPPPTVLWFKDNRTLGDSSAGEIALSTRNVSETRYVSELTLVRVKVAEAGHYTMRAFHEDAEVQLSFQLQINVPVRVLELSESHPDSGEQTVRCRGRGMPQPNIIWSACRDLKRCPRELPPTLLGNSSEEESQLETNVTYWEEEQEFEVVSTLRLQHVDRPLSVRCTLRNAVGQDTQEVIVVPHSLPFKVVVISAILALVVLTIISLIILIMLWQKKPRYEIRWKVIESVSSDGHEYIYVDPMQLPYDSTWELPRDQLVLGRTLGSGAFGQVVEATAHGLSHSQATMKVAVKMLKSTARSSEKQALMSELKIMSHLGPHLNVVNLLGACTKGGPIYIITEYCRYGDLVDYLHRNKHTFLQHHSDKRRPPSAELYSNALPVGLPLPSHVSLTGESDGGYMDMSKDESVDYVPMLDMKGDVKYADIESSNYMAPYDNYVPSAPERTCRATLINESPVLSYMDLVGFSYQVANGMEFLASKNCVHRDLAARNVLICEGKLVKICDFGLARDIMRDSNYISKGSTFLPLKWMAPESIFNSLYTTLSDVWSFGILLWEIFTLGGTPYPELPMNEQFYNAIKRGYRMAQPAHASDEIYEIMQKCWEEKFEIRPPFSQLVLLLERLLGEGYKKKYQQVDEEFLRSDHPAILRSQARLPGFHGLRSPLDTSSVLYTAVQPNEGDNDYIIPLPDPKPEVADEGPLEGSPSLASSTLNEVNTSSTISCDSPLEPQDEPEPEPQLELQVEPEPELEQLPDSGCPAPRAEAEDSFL
Chain of c-Kit (P10721 26-976): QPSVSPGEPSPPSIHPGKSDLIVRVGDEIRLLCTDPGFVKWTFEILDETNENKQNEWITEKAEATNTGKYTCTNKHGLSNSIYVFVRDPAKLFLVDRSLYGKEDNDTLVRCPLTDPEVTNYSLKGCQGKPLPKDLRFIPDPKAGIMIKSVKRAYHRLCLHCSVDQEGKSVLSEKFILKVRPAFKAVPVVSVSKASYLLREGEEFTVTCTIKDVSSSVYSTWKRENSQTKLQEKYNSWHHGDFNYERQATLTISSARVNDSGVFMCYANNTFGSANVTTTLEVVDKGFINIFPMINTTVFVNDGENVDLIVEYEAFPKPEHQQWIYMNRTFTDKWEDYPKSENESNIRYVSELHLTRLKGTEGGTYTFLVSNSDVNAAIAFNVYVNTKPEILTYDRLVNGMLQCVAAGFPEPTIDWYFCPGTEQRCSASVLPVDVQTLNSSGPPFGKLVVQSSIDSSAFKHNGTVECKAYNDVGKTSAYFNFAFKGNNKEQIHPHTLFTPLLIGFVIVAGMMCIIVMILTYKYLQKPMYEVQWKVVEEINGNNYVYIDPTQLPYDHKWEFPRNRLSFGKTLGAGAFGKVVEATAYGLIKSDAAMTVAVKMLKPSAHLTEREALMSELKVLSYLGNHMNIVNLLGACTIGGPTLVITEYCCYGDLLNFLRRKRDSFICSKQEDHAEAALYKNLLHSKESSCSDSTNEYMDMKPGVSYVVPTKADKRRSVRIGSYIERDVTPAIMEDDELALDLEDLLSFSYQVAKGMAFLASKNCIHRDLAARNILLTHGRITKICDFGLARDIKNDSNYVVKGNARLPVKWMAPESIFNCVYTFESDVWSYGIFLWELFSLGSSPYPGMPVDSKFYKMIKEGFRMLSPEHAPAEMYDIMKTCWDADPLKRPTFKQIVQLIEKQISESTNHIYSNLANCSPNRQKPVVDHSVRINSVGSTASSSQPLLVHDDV

| Compound | IC50 ([1]; HTRF KinEASE-TK) [nM] | IC50 ([2]; HTRF KinEASE-TK) [nM] | IC50 ([3]; HTRF KinEASE-TK) [nM] | IC50 [4, 7] [nM] | IC50 ([5]; HTRF KinEASE-TK) [nM] | IC50 ([6]; HTRF KinEASE-TK) [nM] | IC50 ([4]; M07e cells, read-out: Phospho-KIT (Y703) cellular IC50) [nM] | IC50 [1] [nM] | IC50 [2] [nM] | IC50 [3] [nM] | IC50 ([4]; phospho-KIT (Y703), SCF-stimulated M07e cells, read-out: M07e Cell IC50) [nM] | IC50 [5] [nM] | IC50 [6] [nM] | IC50 ([4]; read-out: M07e Cell IC50) [nM] |
| --- | --- | --- | --- | --- | --- | --- | --- | --- | --- | --- | --- | --- | --- | --- |
| COCCc1ccc(NC(=O)c2cc(NC(=O)c3cnc(N)s3)c(C)cc2F)nc1 [Example 245, 2-Amino-N-[4-fluoro-5-[[5-(2-methoxyethyl)pyridin-2-yl]carbamoyl]-2-methylphenyl]-1,3-thiazole-5-carboxamide] | > 1000 | > 1000 | < 100 | < 100 | > 1000 | > 1000 | – | – | – | – | – | – | – | – |
| Cc1ncc(C(=O)Nc2cc(C(=O)Nc3cncc(COC(F)F)c3)c(F)cc2C)s1 [Example 80, N-[5-[[5-(difluoromethoxymethyl)pyridin-3-yl]carbamoyl]-4-fluoro-2-methylphenyl]-2-methyl-1,3-thiazole-5-carboxamide] | > 1000 | > 1000 | < 100 | – | > 1000 | > 1000 | – | – | – | – | – | – | – | < 100 |
| Cc1cc(F)c(C(=O)Nc2ccc(C(F)F)cn2)cc1NC(=O)c1cnc(N)s1 [Example 226, 2-Amino-N-[5-[[5-(difluoromethyl)pyridin-2-yl]carbamoyl]-4-fluoro-2-methylphenyl]-1,3-thiazole-5-carboxamide] | > 1000 | 100 to 1000 | < 100 | < 100 | > 1000 | 100 to 1000 | – | – | – | – | – | – | – | – |
| CCc1ccc(NC(=O)c2cc(NC(=O)c3cnc(N)s3)c(C)cc2F)nc1 [Example 255, 2-Amino-N-[5-[(5-ethylpyridin-2-yl)carbamoyl]-4-fluoro-2-methylphenyl]-1,3-thiazole-5-carboxamide] | 100 to 1000 | 100 to 1000 | < 100 | < 100 | > 1000 | 100 to 1000 | – | – | – | – | – | – | – | – |
| Cc1ncc(C(=O)Nc2cc(C(=O)Nc3ccc(C(C)(F)F)cn3)c(F)cc2C)s1 [Example 20, N-[5-[[5-(1,1-Difluoroethyl)pyridin-2-yl]carbamoyl]-4-fluoro-2-methylphenyl]-2-methyl-1,3-thiazole-5-carboxamide] | > 1000 | > 1000 | < 100 | < 100 | > 1000 | > 1000 | – | – | – | – | – | – | – | – |
| Cc1ncc(C(=O)Nc2cc(C(=O)Nc3ccn(C(C)C)n3)c(F)cc2C)s1 [Example 63, N-[4-Fluoro-2-methyl-5-[(1-propan-2-ylpyrazol-3-yl)carbamoyl]phenyl]-2-methyl-1,3-thiazole-5-carboxamide] | > 1000 | > 1000 | < 100 | < 100 | > 1000 | > 1000 | – | – | – | – | – | – | – | – |
| Cc1cc(F)c(C(=O)Nc2ccc(OC(C)C)nn2)cc1NC(=O)c1cnc(N)s1 [Example 259, 2-Amino-N-[4-fluoro-2-methyl-5-[(6-propan-2-yloxypyridazin-3-yl)carbamoyl]phenyl]-1,3-thiazole-5-carboxamide] | 100 to 1000 | < 100 | < 100 | – | > 1000 | 100 to 1000 | < 100 | – | – | – | – | – | – | – |
| Cc1cc(F)c(C(=O)Nc2ccc(OC(F)(F)F)cn2)cc1NC(=O)c1cnc(N)s1 [Example 8, 2-Amino-N-[4-fluoro-2-methyl-5-[[5-(trifluoromethoxy)pyridin-2-yl]carbamoyl]phenyl]-1,3-thiazole-5-carboxamide] | – | – | – | – | – | – | – | 100 to 1000 | 100 to 1000 | < 100 | < 100 | > 1000 | 100 to 1000 | – |
| Cc1ncc(C(=O)Nc2cc(C(=O)Nc3ccc(CC(F)(F)F)cn3)c(C)cc2C)s1 [Example 75, N-(2,4-dimethyl-5-((5-(2,2,2-trifluoroethyl)pyridin-2-yl)carbamoyl)phenyl)-2-methylthiazole-5-carboxamide] | > 1000 | > 1000 | 100 to 1000 | – | > 1000 | > 1000 | – | – | – | – | – | – | – | 100 to 1000 |
| Cc1cc(F)c(C(=O)Nc2ccc3c(n2)COCC3)cc1NC(=O)c1cnc(N)s1 [Example 114, 2-Amino-N-[5-(6,8-dihydro-5H-pyrano[3,4-b]pyridin-2-ylcarbamoyl)-4-fluoro-2-methylphenyl]-1,3-thiazole-5-carboxamide] | 100 to 1000 | 100 to 1000 | < 100 | < 100 | > 1000 | 100 to 1000 | – | – | – | – | – | – | – | – |
| Cc1cc(F)c(C(=O)Nc2ccn(CC(C)C)n2)cc1NC(=O)c1cnc(N)s1 [Example 142, 2-Amino-N-[4-fluoro-2-methyl-5-[[1-(2-methylpropyl)pyrazol-3-yl]carbamoyl]phenyl]-1,3-thiazole-5-carboxamide] | 100 to 1000 | 100 to 1000 | < 100 | < 100 | > 1000 | > 1000 | – | – | – | – | – | – | – | – |

Second part, led by results:

| IC50 ([1]; HTRF KinEASE-TK) [nM] | IC50 ([2]; HTRF KinEASE-TK) [nM] | IC50 ([3]; HTRF KinEASE-TK) [nM] | IC50 [4, 7] [nM] | IC50 ([5]; HTRF KinEASE-TK) [nM] | IC50 ([6]; HTRF KinEASE-TK) [nM] | IC50 ([4]; M07e cells, read-out: Phospho-KIT (Y703) cellular IC50) [nM] | IC50 [1] [nM] | IC50 [2] [nM] | IC50 [3] [nM] | IC50 ([4]; phospho-KIT (Y703), SCF-stimulated M07e cells, read-out: M07e Cell IC50) [nM] | IC50 [5] [nM] | IC50 [6] [nM] | Compound | IC50 ([4]; read-out: M07e Cell IC50) [nM] |
| --- | --- | --- | --- | --- | --- | --- | --- | --- | --- | --- | --- | --- | --- | --- |
| > 1000 | > 1000 | < 100 | < 100 | > 1000 | > 1000 | – | – | – | – | – | – | – | CO[C@H]1C[C@@H](n2ccc(NC(=O)c3cc(NC(=O)c4cnc(N)s4)c(C)cc3F)n2)C1 [Example 185, 2-Amino-N-[4-fluoro-5-[[1-(cis-3-methoxycyclobutyl)pyrazol-3-yl]carbamoyl]-2-methylphenyl]-1,3-thiazole-5-carboxamide] | – |
| > 1000 | > 1000 | < 100 | < 100 | > 1000 | > 1000 | – | – | – | – | – | – | – | Cc1cc(F)c(C(=O)Nc2ccc(COCC3CC3)cn2)cc1NC(=O)c1cnc(N)s1 [Example 251, 2-Amino-N-[5-[[5-(cyclopropylmethoxymethyl)pyridin-2-yl]carbamoyl]-4-fluoro-2-methylphenyl]-1,3-thiazole-5-carboxamide] | – |
| > 1000 | > 1000 | < 100 | < 100 | > 1000 | 100 to 1000 | – | – | – | – | – | – | – | Cc1cc(F)c(C(=O)Nc2ccc3c(n2)CCOC3)cc1NC(=O)c1cnc(N)s1 [Example 115, 2-Amino-N-[5-(7,8-dihydro-5H-pyrano[4,3-b]pyridin-2-ylcarbamoyl)-4-fluoro-2-methylphenyl]-1,3-thiazole-5-carboxamide] | – |
| > 1000 | > 1000 | < 100 | < 100 | > 1000 | > 1000 | – | – | – | – | – | – | – | CCOc1cnc(NC(=O)c2cc(NC(=O)c3cnc(C)s3)c(C)cc2F)cn1 [Example 17, N-[5-[(5-Ethoxypyrazin-2-yl)carbamoyl]-4-fluoro-2-methylphenyl]-2-methyl-1,3-thiazole-5-carboxamide] | – |
| > 1000 | > 1000 | < 100 | < 100 | > 1000 | > 1000 | – | – | – | – | – | – | – | Cc1cc(F)c(C(=O)Nc2ccccn2)cc1NC(=O)c1cnc(N)s1 [Example 132, 2-Amino-N-[4-fluoro-2-methyl-5-(pyridin-2-ylcarbamoyl)phenyl]-1,3-thiazole-5-carboxamide] | – |
| > 1000 | > 1000 | < 100 | < 100 | > 1000 | > 1000 | – | – | – | – | – | – | – | Nc1ncc(C(=O)Nc2cc(C(=O)Nc3ccc(OC(F)F)cn3)c(F)cc2F)s1 [Example 219, 2-Amino-N-[5-[[5-(difluoromethoxy)pyridin-2-yl]carbamoyl]-2,4-difluorophenyl]-1,3-thiazole-5-carboxamide] | – |
| > 1000 | > 1000 | < 100 | < 100 | > 1000 | > 1000 | – | – | – | – | – | – | – | CC(C)Oc1ccc(NC(=O)c2cc(NC(=O)c3cnc(N)s3)c(F)cc2F)nc1 [Example 218, 2-Amino-N-[2,4-difluoro-5-[(5-propan-2-yloxypyridin-2-yl)carbamoyl]phenyl]-1,3-thiazole-5-carboxamide] | – |
